In US8093287B2, “Inhibitors of matrix metalloproteinases” (University of Notre Dame du Lac, priority 2005, dated 2012):
In brackets after ≈: the same amount, converted by molar mass. Read-outs that look alike come from different tables or passages of the source.

Columns and labels:
MMP-9 [1] = target: T1, MMP-9 (Homo sapiens, UniProt P14780); assay: Enzyme kinetics, MMP inhibition (Example 1); format: biochemical
Target sequence in this assay (P14780 94-707): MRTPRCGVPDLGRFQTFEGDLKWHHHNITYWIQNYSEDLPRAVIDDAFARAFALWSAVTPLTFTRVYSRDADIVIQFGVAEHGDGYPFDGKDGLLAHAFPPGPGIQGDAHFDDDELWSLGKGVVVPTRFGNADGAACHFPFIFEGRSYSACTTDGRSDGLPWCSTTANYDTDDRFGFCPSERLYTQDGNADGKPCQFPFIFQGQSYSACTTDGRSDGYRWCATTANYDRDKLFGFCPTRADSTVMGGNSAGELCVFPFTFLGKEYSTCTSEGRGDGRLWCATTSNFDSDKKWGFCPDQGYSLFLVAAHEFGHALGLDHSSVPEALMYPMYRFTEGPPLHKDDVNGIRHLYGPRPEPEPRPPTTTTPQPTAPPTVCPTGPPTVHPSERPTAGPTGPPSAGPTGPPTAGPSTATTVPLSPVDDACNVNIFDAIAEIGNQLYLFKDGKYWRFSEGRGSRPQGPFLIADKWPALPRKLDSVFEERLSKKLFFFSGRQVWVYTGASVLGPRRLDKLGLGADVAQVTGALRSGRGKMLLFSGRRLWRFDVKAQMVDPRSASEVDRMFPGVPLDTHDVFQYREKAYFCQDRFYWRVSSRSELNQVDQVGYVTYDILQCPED

MMP-7 [2] = target: T2, MMP-7 (Homo sapiens, UniProt P09237); assay: Enzyme kinetics, MMP inhibition (Example 1); format: biochemical
T2 sequence (P09237 95-267): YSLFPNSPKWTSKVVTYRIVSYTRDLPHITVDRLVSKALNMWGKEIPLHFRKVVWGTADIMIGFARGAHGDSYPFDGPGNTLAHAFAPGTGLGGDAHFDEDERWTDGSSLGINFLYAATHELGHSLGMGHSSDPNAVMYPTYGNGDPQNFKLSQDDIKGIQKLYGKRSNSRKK

MMP-14cat = target: T3, MMP-14cat (Homo sapiens, UniProt P50281); assay: Enzyme kinetics, MMP inhibition (Example 1); format: biochemical
T3 construct: MMP-2 (A), MMP-9 (B) and MMP-14cat (C)

MMP-1 [3] = target: T4, MMP-1 (Homo sapiens, UniProt P03956); assay: Enzyme kinetics, MMP inhibition (Example 1); format: biochemical
T4 sequence (P03956 100-469): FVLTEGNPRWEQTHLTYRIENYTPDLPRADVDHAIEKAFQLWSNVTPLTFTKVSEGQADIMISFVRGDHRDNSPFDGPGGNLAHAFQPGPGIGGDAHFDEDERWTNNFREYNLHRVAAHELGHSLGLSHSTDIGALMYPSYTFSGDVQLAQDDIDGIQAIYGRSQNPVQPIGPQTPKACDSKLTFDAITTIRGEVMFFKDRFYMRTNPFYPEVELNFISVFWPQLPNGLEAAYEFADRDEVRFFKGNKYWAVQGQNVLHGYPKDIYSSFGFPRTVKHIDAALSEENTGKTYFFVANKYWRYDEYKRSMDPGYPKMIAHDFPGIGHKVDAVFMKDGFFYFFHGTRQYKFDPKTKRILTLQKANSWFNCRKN

MMP-3 [4] = target: T5, MMP-3 (Homo sapiens, UniProt P08254); assay: Enzyme kinetics, MMP inhibition (Example 1); format: biochemical
Target sequence in this assay (P08254 100-477): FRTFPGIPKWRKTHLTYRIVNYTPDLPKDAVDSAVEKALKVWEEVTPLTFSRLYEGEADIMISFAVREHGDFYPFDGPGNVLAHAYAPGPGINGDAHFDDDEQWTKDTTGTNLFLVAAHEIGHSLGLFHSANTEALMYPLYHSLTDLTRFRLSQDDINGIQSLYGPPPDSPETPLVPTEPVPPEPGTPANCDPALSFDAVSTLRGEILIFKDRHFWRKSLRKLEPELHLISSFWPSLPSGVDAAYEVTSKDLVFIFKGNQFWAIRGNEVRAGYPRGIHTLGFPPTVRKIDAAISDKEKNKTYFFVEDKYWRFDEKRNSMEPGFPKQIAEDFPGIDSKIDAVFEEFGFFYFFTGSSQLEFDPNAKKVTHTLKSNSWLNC

MMP-2 = target: T6, MMP-2 (Homo sapiens, UniProt P08253); assay: Enzyme kinetics, MMP inhibition (Example 1); format: biochemical; conditions: for Ki: for 1.3 with slow-binding component
T6 sequence (P08253 110-660): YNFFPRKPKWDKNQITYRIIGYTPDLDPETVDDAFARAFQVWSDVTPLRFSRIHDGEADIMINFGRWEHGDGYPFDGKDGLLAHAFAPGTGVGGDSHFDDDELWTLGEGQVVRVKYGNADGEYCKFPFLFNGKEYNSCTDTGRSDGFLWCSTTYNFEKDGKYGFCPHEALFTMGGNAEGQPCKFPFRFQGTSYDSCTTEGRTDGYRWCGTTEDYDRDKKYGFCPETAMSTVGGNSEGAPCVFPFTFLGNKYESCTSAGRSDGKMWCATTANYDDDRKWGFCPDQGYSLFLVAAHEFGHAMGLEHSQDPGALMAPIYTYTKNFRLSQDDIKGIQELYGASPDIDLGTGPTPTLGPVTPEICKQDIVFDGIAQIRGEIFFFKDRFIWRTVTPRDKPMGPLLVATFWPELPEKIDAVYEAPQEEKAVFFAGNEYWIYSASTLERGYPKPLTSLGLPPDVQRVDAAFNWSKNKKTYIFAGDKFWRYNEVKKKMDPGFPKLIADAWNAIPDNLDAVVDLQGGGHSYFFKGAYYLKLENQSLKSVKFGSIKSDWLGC

physchem = conditions: 37 °C, pH 7.5, aqueous with cosolvent or surfactant or cyclodextrin, kinetic from dmso stock
MMP-14 [5] = target: T7, MMP-14 (Homo sapiens, UniProt P50281); conditions: MMP-14, slow-binding component, koff/kon
MMP-9 [6] = target: T1, MMP-9; conditions: read-out: Ki of the slow-binding component
Target sequence in this assay (P14780 107-707 limits assumed): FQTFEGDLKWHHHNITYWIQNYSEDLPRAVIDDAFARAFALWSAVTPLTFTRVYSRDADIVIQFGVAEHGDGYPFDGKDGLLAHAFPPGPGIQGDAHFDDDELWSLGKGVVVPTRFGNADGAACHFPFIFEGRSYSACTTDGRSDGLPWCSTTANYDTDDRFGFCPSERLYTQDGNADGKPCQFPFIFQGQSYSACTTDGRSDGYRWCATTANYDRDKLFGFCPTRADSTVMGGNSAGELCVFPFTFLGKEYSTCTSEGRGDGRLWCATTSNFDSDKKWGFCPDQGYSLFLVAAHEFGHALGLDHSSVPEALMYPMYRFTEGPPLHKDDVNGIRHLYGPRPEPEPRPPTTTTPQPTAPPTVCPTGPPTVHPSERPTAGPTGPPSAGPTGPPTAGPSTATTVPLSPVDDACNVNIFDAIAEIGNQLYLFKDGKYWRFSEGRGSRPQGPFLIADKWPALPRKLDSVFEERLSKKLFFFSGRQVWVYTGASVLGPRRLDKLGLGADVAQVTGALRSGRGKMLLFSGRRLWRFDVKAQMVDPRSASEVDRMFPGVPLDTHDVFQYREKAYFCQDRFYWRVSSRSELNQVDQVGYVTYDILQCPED

HT1080 cells [7] = assay: Migration assay, scratch wound; format: cell-based, human
Experimental: (§1) FIG. 7 illustrates inhibition of HT1080 cell motility and invasion by inhibitor 2.3. A-B: Confluent cultures of HT1080 cells in 6-well plates were treated with mitomycin C (25 μg/ml) in serum-free DMEM media for 30 minutes. Scratch wounds were made on the monolayers and the wounded cultures were then incubated with serum-free DMEM supplemented without or with various amounts of inhibitor 2.3 (0-20 μM) for up to 20 hours. At each time period, the cultures were photographed (A) and the width of the scratch wound was measured as described under the Experimental Procedures section of Example 2. (C): HT1080 cells were seeded in 8-μm pore Transwell filters coated with Matrigel (50 μg/filter) in the presence or absence of inhibitor 2.3 (0.1-10 μM). The number of cells that invaded to the lower side of the filter was counted in three representative fields. Each value represents the mean±SE of four independent determinations. *P<0.05, and *P<0.001 when tested against the control using Tukey-Kramer Multiple Comparisons Test (P=0.004 by ANOVA).
Migration and Invasion Assays—For migration assays, HT1080 cells were cultured in 6-well plates in complete media until they reached confluence. […] The extent of wound closure in the presence or absence of inhibitor was quantified by measuring the width of the wound with a ruler using an amplified PowerPoint figure.

HT1080 cells [8] = assay: Tumor cell invasion, Matrigel-coated Transwell; format: cell-based; conditions: Homo sapiens, HT-1080; 100 nM; Matrigel-coated filters, 18 h
Experimental: as §1
Tumor cell invasion was carried out in 8-μm pore Transwell inserts (Becton Dickinson, Boston, Mass.) coated with 50 μg Matrigel per filter. […] The cells that migrated to the lower side of the Matrigel-coated filter were fixed and stained with Diff-Quik® (Dade Behring Inc., Newark, Del.), and counted under a microscope in three different fields. […]

MMP-1 [9] = target: T4, MMP-1; assay: biochemical
MMP-7 [10] = target: T2, MMP-7; conditions: MMP-7, rapid competitive inhibition
HT1080 cells [11] = assay: Chemosensitivity assay (WST-1); format: cell-based, human; conditions: up to 10 μM, 18 hours
Experimental: Chemosensitivity Assay—Cell viability after exposure of the cells to the inhibitors was assessed by 2-(4-iodophenyl)-3-(4-nitrophenyl)-5-(2,4-disulfophenyl)-2H-tetrazolium, monosodium salt (WST-1, Roche Diagnostics Gmbh, Mannheim, Germany) staining Briefly, HT1080 cells (2×10^4 cells/well) were seeded in 96-well culture plates in complete medium. After overnight culture, the medium was replaced with serum and phenol-free media containing 0.1% BSA and supplemented with or without inhibitor 2.3 (0-10 μM final concentrations). Control medium was supplemented with 1% DMSO. After 18 hours incubation, WST-1 (10 μL/well) was added and the difference in absorbance at 450 and 655 (reference filter) nm was measured using a Bio-Rad Benchmark microplate reader. Data were collected using the Microplate Manager software. The absorbance of blank wells containing control media but no cells (typically <5%) was subtracted. Each treatment was assayed in quadruplicate.

MMP-3 [12] = target: T5, MMP-3; conditions: MMP-3, rapid competitive inhibition
Target sequence in this assay (P08254 100-272 limits assumed): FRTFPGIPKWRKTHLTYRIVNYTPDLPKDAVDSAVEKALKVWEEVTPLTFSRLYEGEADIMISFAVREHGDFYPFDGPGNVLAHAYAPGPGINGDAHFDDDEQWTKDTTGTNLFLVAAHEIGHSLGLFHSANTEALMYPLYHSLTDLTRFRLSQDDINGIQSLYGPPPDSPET

MMP-7 [13] = target: T2, MMP-7; assay: biochemical
MMP-9 [14] = target: T1, MMP-9; assay: biochemical
Target sequence in this assay (P14780 107-707 limits assumed): as the sequence (P14780 107-707 limits assumed) above

MMP-14 [15] = target: T7, MMP-14; assay: biochemical
MMP-3 [16] = target: T5, MMP-3; assay: biochemical
Target sequence in this assay (P08254 100-272 limits assumed): as the sequence (P08254 100-272 limits assumed) above

[17] = Assessment of inhibitor solubility; conditions: 37 °C, pH 7.5, aqueous with cosolvent or surfactant or cyclodextrin, kinetic from dmso stock

## 2-(4-{4-[(2-Thiiranylpropyl)sulfonyl]phenoxy}phenyl)acetic acid [Compound 1.4]
MMP-9 [1]
  Ki: 4.1 µM
MMP-7 [2]
  Ki: 250 µM
MMP-14cat
  Ki: 53 µM
MMP-1 [3]
  Ki: 4.5 µM
MMP-3 [4]
  Ki: 540 µM
MMP-2
  Ki: 0.46 µM

## O=S(=O)(CC1CS1)c1ccc(Oc2ccccc2)cc1 (stereo not drawn) [Compound 2.1, reference compound]
physchem
  solubility: 80 µM (≈ 24.5 µg/mL)

## CS(=O)(=O)Nc1ccc(Oc2ccc(S(=O)(=O)CC3CS3)cc2)cc1 (stereo not drawn) [Compound 2.3, {4-[4-(Methanesulfonamido)phenoxy]phenylsulfonyl}methylthiirane]
MMP-14 [5]
  Ki: 0.9 ± 0.1 µM
MMP-9 [6]
  Ki: 0.18 ± 0.05 µM
HT1080 cells [7]; 200 nM
  migration in scratch wound assay: slower migration
HT1080 cells [7]; Homo sapiens, HT-1080
  inhibition at 2 µM: 80%
HT1080 cells [8]
  inhibition at 0.1 µM: > 25%
MMP-1 [9]
  Ki: > 25 µM
MMP-7 [10]
  Ki: 295 ± 10 µM
HT1080 cells [11]
  cell toxicity (WST-1): no evidence of cell toxicity
physchem
  solubility: 340 µM (≈ 136 µg/mL)
MMP-3 [12]
  Ki: 3.6 ± 0.2 µM

## O=[N+]([O-])c1ccc(Oc2ccc(S(=O)(=O)CC3CO3)cc2)cc1 (stereo not drawn) [Compound 2.4, [4-(4-Nitrophenoxy)phenylsulfonyl]methyloxirane]
MMP-1 [9]
  Ki: > 298 µM
MMP-7 [13]
  Ki: 130 ± 15 µM
MMP-9 [14]
  Ki: 25 ± 5 µM
MMP-14 [15]
  Ki: 76 ± 13 µM
MMP-3 [16]
  Ki: > 190 µM

## O=[N+]([O-])c1ccc(Oc2ccc(S(=O)(=O)CC3CS3)cc2)cc1 (stereo not drawn) [Compound 2.5, [4-(4-Nitrophenoxy)phenylsulfonyl]methylthiirane]
[17]
  solubility: 60 µM (≈ 21.1 µg/mL)
MMP-1 [9]
  Ki: 67 ± 18 µM
MMP-7 [13]
  Ki: 153 ± 16 µM
MMP-9 [14]
  Ki: 1 ± 0.1 µM
MMP-14 [15]
  Ki: 4.9 ± 0.3 µM
MMP-3 [16]
  Ki: 131 ± 9 µM

## CC(=O)Nc1ccc(Oc2ccc(S(=O)(=O)CC3CO3)cc2)cc1 (stereo not drawn) [Compound 2.6, [4-(4-Acetamidophenoxy)phenylsulfonyl]methyloxirane]
MMP-1 [9]
  Ki: > 154 µM
MMP-7 [13]
  Ki: > 184 µM
MMP-9 [14]
  Ki: 34 ± 3 µM
MMP-14 [15]
  Ki: > 230 µM
MMP-3 [16]
  Ki: > 188 µM

## CC(=O)Nc1ccc(Oc2ccc(S(=O)(=O)CC3CS3)cc2)cc1 (stereo not drawn) [Compound 2.7, [4-(4-Acetamidophenoxy)phenylsulfonyl]methylthiirane]
physchem
  solubility: 540 µM (≈ 196 µg/mL)

## Methyl 2-(4-{4-[(2-Thiiranylpropyl)sulfonyl]phenoxy}phenyl)-acetate [Compound 1.3]
MMP-9 [1]
  Ki: 0.04 ± 0.002 µM
MMP-7 [2]
  Ki: 13 µM
MMP-14cat
  Ki: 0.59 ± 0.07 µM
MMP-1 [3]
  Ki: 11 µM
MMP-3 [4]
  Ki: 8.7 µM
MMP-2
  koff, slow-binding component of inhibition: (6.2 ± 0.7) × 10^−4 s^−1
  kon, slow-binding component of inhibition: (1.2 ± 0.3) 10^4 M^−1s^−1
  Ki: 0.05 ± 0.014 µM
